Experimental data: US11136299B2, “Benzodiazepine derivatives for use in the treatment of Chlamydiales infections” (priority 2015, dated 2021)

What was measured:
Assay type in all cases: cell-based
[1] = tested on: Chlamydia trachomatis (Ctr) strain L2/434/Bu; test: Ctr infectivity assay, progeny infection, cellular protection by GFP microscopy quantification; conditions: HeLa229 cells, Ctr MOI1, progeny infection fixed 48 hpi, versus solvent-treated cells; for inhibition at 25 µM: Chlamydia trachomatis, HeLa 229, 48 h; for Cellular protection at 75 μM (%): 75 μM compound
Text: (§1) Chlamydia trachomatis (Ctr). Laboratory-adapted strain L2/434/Bu (ATCC VR902B) was used in assays. Full biological and genetic information is available for this strain including complete genome sequence and defined proteome. This strain has a relatively low particle to infectivity ratio, perform efficient cell infection and has a higher viability than standard genital tract isolates with faster developmental cycle. Culture conditions have been described in (Wang Y., Kahane S., Cutcliffe L. T., Skilton R. J., Lambden P. R., Clarke I. N. Development of a transformation system for Chlamydia trachomatis: Restoration of glycogen biosynthesis by acquisition of a plasmid shuttle vector. PLoS Pathogen, 2011, 7(9): e1002258. doi: 10.1371/journal.ppat.1002258).
Compound application during Chlamydia trachomatis infection. HeLa229 cells were pretreated with Retro-1 and Retro-1 derivatives in concentrations of 25 μM and 75 μM for 1 hour until Chlamydia trachomatis (MOI1) were added to the cells. Compounds were present during infection. To obtain progeny infection, compound treated cells were lysed 24 h post infection (hpi) and lysate was used to infect fresh HeLa 229 cells. Infected cells of progeny infection were fixed with 4% Paraformaldehyde 48 hpi. Cells were stained for DAPI and Chlamydia trachomatis were detected by GFP-signal. Images are representative of n=2 independent experiments. Quantification of infected cells by Chlamydia trachomatis was realized from microscopy images with Image J software (FIG. 7) and cellular protection by compounds at 25 μM and 75 μM was then determined (Table 1) by comparison with solvent-treated cells (control) with the following equation: […]

[2] = tested on: Chlamydia trachomatis (Ctr) strain L2/434/Bu; test: Ctr infectivity assay, primary and progeny infection, HSP60 immunoblot; conditions: Retro-1 50-75 μM in the primary infection; HeLa229 cells; FIG. 6
Text: as §1, with “performs” for “perform”
Compound application during Ctr infection. HeLa229 cells were pretreated with Retro-1 in concentrations of 25, 50 and 75 μM for 30 min until Ctr (MOI1) were added to the cells. Retro-1 was present during infection.
Cells with primary infection were lysed 24 h post infection (hpi). To obtain progeny infection compound treated cells were lysed 48 hpi and lysate was used to infect fresh HeLa229 cells. Progeny infection was lysed 24 hpi and analyzed together with primary infection samples by immunoblot. Chlamydial growth was detected with antibodies against chlamydial HSP60 protein and Actin was used as loading control (FIG. 6).

[3] = tested on: Simkania negevensis (Sn) strain Z; test: Sn infectivity assays (primary and progeny infection) in HeLa229 cells; conditions: for effect on primary and progeny infection for Simkania / concentration at which maximal inhibition of Sn replication was observed: HeLa cells; for effect on primary and progeny infection for Simkania: GroEL western, inclusion size, inclusion number, microscopy; for concentration at which maximal inhibition of Sn replication was observed: tested at 25 and 75 μM, FIGS. 1-4; for effect on Sn inclusions (transmission electron microscopy): infected HeLa cells versus DMSO-treated control, FIG. 5
Experimental: Simkania negevensis (Sn) strain Z (ATCC VR-1471) was prepared as described previously (Mehlitz A, Karunakaran K, Herweg J A, Krohne G, van de Linde S, Rieck E, Sauer M, Rudel T. The chlamydial organism Sn forms ER vacuole contact sites and inhibits ER-stress. Cell Microbiol 2014; 16(8):1224-1243).
Briefly, HeLa229 cells were grown to 50-70% confluence, were inoculated with Sn in RPMI1640 with 5% FBS, for 6 h at 35° C. in a humidified incubator at 5% CO2. Medium was replaced by infection medium (RPMI1640, Glutamax, 5% FBS, w/o HEPES) and growth was allowed for 3 days. Cells were mechanically detached and bacteria were released using ˜2-5 mm glass beads (Carl Roth). Low speed supernatant (600×g, 4° C. and 5 min) was subjected to high-speed centrifugation (20,000×g, 4° C. and 30 min) to pellet bacteria. Bacteria were washed twice with 5 ml SPG (250 mM sucrose, 50 mM sodium phosphate, 5 mM glutamate, pH 7.4), aliquoted and stored at −80° C. in SPG.
40,000 Hela cells were seeded in 12-well cluster plates, inhibitor-treated and infected as indicated in the respective experiment.
For infectivity assays cells were either fixed and stained at indicated time points (FIG. 2, 4; inclusion formation/primary infection) or bacteria were released via one freeze thaw cycle (−70° C./37° C.) followed by mechanical release through pipetting and transfer to fresh HeLa229 cells (1:25-1:50, progeny/infectivity). Cells were centrifuged for 1 h at 35° C. and medium exchanged to infection medium. Progeny was fixed at day 3 post infection and processed for staining (FIG. 3) or harvested for immunoblotting (FIG. 1). Infectivity assays were imaged on an automated fluorescence microscope Leica DMIR (FIG. 4). Numbers and average sizes of the SCV as well as host cell numbers were determined via GroEL and DAPI staining and images were analysed and quantified using FIJI (ImageJ) and Excel (Microsoft).
In progeny assay, bacteria are first grown in Hela299 cells treated with inhibitors, Retro-1 and VP-184 (25 and 75 μM), and the infectious particles from this primary infection are applied to fresh cells in the absence of inhibitor to measure the bacterial load (GroEL immunoblot) and inclusion formation (immunofluorescence microscopy).

Structure (SMILES) | inhibition at 25 µM ([1]; 25 μM compound) [%] | Cellular protection at 75 μM (%) [1] [%] | further results
O=C1CN=C(c2ccccc2)c2cc(Br)cc(Br)c2N1 [HA061, 7,9-dibromo-5-phenyl-1,3-dihydro-2H-benzo[e][1,4]diazepin-2-one] | 57.8 | – | –
O=C1CN=C(c2ccccc2Cl)c2cc(Cl)ccc2N1 [HA197, 7-chloro-5-(2-chlorophenyl)-1,3-dihydro-2H-benzo[e][1,4]diazepin-2-one] | 90.6 | 84.3 | –
CN1C(=O)CN=C(c2ccccc2Cl)c2cc(Cl)ccc21 [HA200, 7-chloro-5-(2-chlorophenyl)-1-methyl-1,3-dihydro-2H-benzo[e][1,4]diazepin-2-one] | 47 | – | –
O=C1CN(C2CCCC2)C(c2ccccc2)c2cc(Br)ccc2N1 (stereo not drawn) [HA229, 7-bromo-4-cyclopentyl-5-phenyl-1,3,4,5-tetrahydro-2H-benzo[e][1,4]diazepin-2-one] | 20.2 | – | –
CC1CCC(N2CC(=O)Nc3ccc(Br)cc3C2c2ccccc2)C1 (stereo not drawn) [HA280, 7-bromo-4-(3-methylcyclopentyl)-5-phenyl-1,3,4,5-tetrahydro-2H-benzo[e][1,4]diazepin-2-one] | 100 | – | Cellular protection at 25 μM (%) ([1]; 25 μM compound): full protection
CCC(=O)N1CC(=O)Nc2ccc(Br)cc2C1c1ccccc1 (stereo not drawn) [Retro-1, 7-bromo-5-phenyl-4-propionyl-1,3,4,5-tetrahydro-2H-benzo[e][1,4]diazepin-2-one] | 26.5 | 2.4 | infectivity in the Ctr progeny (HSP60 immunoblot) [2]: significant reduced infectivity in the progeny; effect on primary and progeny infection for Simkania [3]: inhibitor effect on primary and progeny infection; concentration at which maximal inhibition of Sn replication was observed [3]: 75 µM; effect on Sn inclusions (transmission electron microscopy) [3]: inclusions were smaller
O=C1CN=C(c2ccccc2)c2cc(Br)ccc2N1 [VP173, 7-bromo-5-phenyl-1,3-dihydro-2H-benzo[e][1,4]diazepin-2-one] | 61.5 | 100 | Cellular protection at 75 μM (%) ([1]; listed as VP 173): full protection
O=C1CNC(c2ccccc2)c2cc(Br)ccc2N1 (stereo not drawn) [VP174, 7-bromo-5-phenyl-1,3,4,5-tetrahydro-2H-benzo[e][1,4]diazepin-2-one] | 27.6 | 52.8 | –
CCCN1CC(=O)Nc2ccc(Br)cc2C1c1ccccc1 (stereo not drawn) [VP-184, 7-bromo-5-phenyl-4-propyl-1,3,4,5-tetrahydro-2H-benzo[e][1,4]diazepin-2-one] | – | – | effect on primary and progeny infection for Simkania [3]: inhibitor effect on primary and progeny infection; concentration at which maximal inhibition of Sn replication was observed [3]: 25 µM; effect on Sn inclusions (transmission electron microscopy) [3]: strongly reduced Sn inclusion formation, size, numbers and Sn replication
